# ChEMBL document CHEMBL2440112, “Structure-activity relationships of the aromatic site in novel anticonvulsant pyrrolo[1,2-a]pyrazine derivatives” (Bioorg Med Chem Lett, 2013)
# Calls of active or inactive are those of the source. The rule behind the calls is not given here.
# Assays:
# Mus musculus [1] = experiment: Anticonvulsant activity in ip dosed albino mouse assessed as protection against 6 Hz psychomotor seizure by minimal clonic seizure test; type: functional
# Mus musculus [2] = experiment: Anticonvulsant activity in albino mouse assessed as protection against subcutaneous metrazole-induced seizures at 100 mg/kg, ip after 0.5 hrs; type: functional, organism-based; design: dose 100 mg/kg
# Mus musculus [3] = experiment: Neurotoxicity in albino mouse assessed as minimal motor impairment at 100 mg/kg, ip after 4 hrs by rotorod test; type: toxicity, organism-based; design: dose 100 mg/kg, route intraperitoneal; details: in vivo
# Mus musculus [4] = experiment: Anticonvulsant activity in albino mouse assessed as protection against maximal electroshock-induced seizures at 100 mg/kg, ip after 4 hrs; type: functional, organism-based; design: dose 100 mg/kg
# Rattus norvegicus = experiment: Anticonvulsant activity in po dosed albino Sprague-Dawley rat assessed as protection against maximal electroshock-induced seizures after […] to 4 hrs; type: functional, organism-based
# Mus musculus [5] = experiment: Neurotoxicity in albino mouse assessed as minimal motor impairment at 100 mg/kg, ip after 1 hr by rotorod test; type: toxicity, organism-based; design: dose 100 mg/kg, route intraperitoneal; details: in vivo
# Mus musculus [6] = experiment: Neurotoxicity in albino mouse assessed as minimal motor impairment at 100 mg/kg, ip after 0.25 hrs by rotorod test; type: toxicity, organism-based; design: dose 100 mg/kg, route intraperitoneal; details: in vivo
# Mus musculus [7] = experiment: Anticonvulsant activity in albino mouse assessed as protection against maximal electroshock-induced seizures at 100 mg/kg, ip after 0.5 hrs; type: functional, organism-based; design: dose 100 mg/kg
# Mus musculus [8] = experiment: Neurotoxicity in albino mouse assessed as minimal motor impairment at 100 mg/kg, ip after 0.5 hrs by rotorod test; type: toxicity, organism-based; design: dose 100 mg/kg, route intraperitoneal; details: in vivo
# Mus musculus [9] = experiment: Anticonvulsant activity in albino mouse assessed as protection against subcutaneous metrazole-induced seizures at 100 mg/kg, ip after 4 hrs; type: functional, organism-based; design: dose 100 mg/kg
# Mus musculus [10] = experiment: Anticonvulsant activity in albino mouse assessed as protection against subcutaneous metrazole-induced seizures at 100 mg/kg, ip after 0.25 hrs; type: functional, organism-based; design: dose 100 mg/kg
# Mus musculus [11] = experiment: Anticonvulsant activity in albino mouse assessed as protection against maximal electroshock-induced seizures at 100 mg/kg, ip after 0.25 hrs; type: functional, organism-based; design: dose 100 mg/kg
# Mus musculus [12] = experiment: Anticonvulsant activity in albino mouse assessed as protection against subcutaneous metrazole-induced seizures at 100 mg/kg, ip after 1 hr; type: functional, organism-based; design: dose 100 mg/kg
# Mus musculus [13] = experiment: Anticonvulsant activity in albino mouse assessed as protection against maximal electroshock-induced seizures at 100 mg/kg, ip after 1 hr; type: functional, organism-based; design: dose 100 mg/kg
# Mus musculus [14] = experiment: Anticonvulsant activity in albino mouse assessed as protection against 6 Hz psychomotor seizure at 100 mg/kg, ip after 0.5 hrs by minimal clonic seizure test; type: functional, organism-based; design: dose 100 mg/kg
# Mus musculus [15] = experiment: Neurotoxicity in albino mouse minimal clonic seizure model assessed as minimal motor impairment at 100 mg/kg, ip after 1 hr by rotorod test; type: toxicity, organism-based; design: dose 100 mg/kg, route intraperitoneal; details: in vivo
# Mus musculus [16] = experiment: Neurotoxicity in albino mouse minimal clonic seizure model assessed as minimal motor impairment at 100 mg/kg, ip after 2 hrs by rotorod test; type: toxicity, organism-based; design: dose 100 mg/kg, route intraperitoneal; details: in vivo
# Mus musculus [17] = experiment: Anticonvulsant activity in albino mouse assessed as protection against 6 Hz psychomotor seizure at 100 mg/kg, ip after 1 hr by minimal clonic seizure test; type: functional, organism-based; design: dose 100 mg/kg
# Mus musculus [18] = experiment: Neurotoxicity in albino mouse minimal clonic seizure model assessed as minimal motor impairment at 100 mg/kg, ip after 0.25 hrs by rotorod test; type: toxicity, organism-based; design: dose 100 mg/kg, route intraperitoneal; details: in vivo
# Mus musculus [19] = experiment: Anticonvulsant activity in albino mouse assessed as protection against 6 Hz psychomotor seizure at 100 mg/kg, ip after 2 hrs by minimal clonic seizure test; type: functional, organism-based; design: dose 100 mg/kg
# Mus musculus [20] = experiment: Anticonvulsant activity in albino mouse assessed as protection against 6 Hz psychomotor seizure at 100 mg/kg, ip after 4 hrs by minimal clonic seizure test; type: functional, organism-based; design: dose 100 mg/kg
# Mus musculus [21] = experiment: Neurotoxicity in albino mouse minimal clonic seizure model assessed as minimal motor impairment at 100 mg/kg, ip after 4 hrs by rotorod test; type: toxicity, organism-based; design: dose 100 mg/kg, route intraperitoneal; details: in vivo
# Mus musculus [22] = experiment: Neurotoxicity in albino mouse minimal clonic seizure model assessed as minimal motor impairment at 100 mg/kg, ip after 0.5 hrs by rotorod test; type: toxicity, organism-based; design: dose 100 mg/kg, route intraperitoneal; details: in vivo
# Mus musculus [23] = experiment: Anticonvulsant activity in albino mouse assessed as protection against 6 Hz psychomotor seizure at 100 mg/kg, ip after 0.25 hrs by minimal clonic seizure test; type: functional, organism-based; design: dose 100 mg/kg
SMILES,Activity (Mus musculus [2]),Activity (Mus musculus [3]),Activity (Mus musculus [4]),Activity (Rattus norvegicus),Activity (Mus musculus [5]),Activity (Mus musculus [6]),Activity (Mus musculus [7]),Activity (Mus musculus [8]),Activity (Mus musculus [9]),Activity (Mus musculus [10]),Activity (Mus musculus [11]),Activity (Mus musculus [12]),Activity (Mus musculus [13]),further results
O=C1NC(=O)C(c2ccccc2)(c2ccccc2)N1 [PHENYTOIN],–,–,–,–,–,–,–,–,–,–,–,–,–,ED50 (Mus musculus [1]): > 60 mg/kg
O=C1NC(=O)[C@@H]2CCCN2[C@H]1c1cccs1,inactive,Non-toxic,inactive,inactive,Non-toxic,Toxic,Active,Non-toxic,inactive,–,–,–,–,–
COc1cccc([C@H]2C(=O)NC(=O)[C@@H]3CCCN23)c1,inactive,Non-toxic,inactive,inactive,Non-toxic,Non-toxic,Active,Non-toxic,inactive,inactive,Active,inactive,inactive,–
O=C1NC(=O)[C@@H]2CCCN2[C@H]1c1cc(Cl)cc(Cl)c1,inactive,Non-toxic,Active,inactive,Non-toxic,Non-toxic,Active,Non-toxic,inactive,inactive,Active,inactive,Active,Activity (Mus musculus [14]): Active; Activity (Mus musculus [15]): Non-toxic; Activity (Mus musculus [16]): Non-toxic; Activity (Mus musculus [17]): inactive; Activity (Mus musculus [18]): Non-toxic; Activity (Mus musculus [19]): inactive; Activity (Mus musculus [20]): inactive; Activity (Mus musculus [21]): Non-toxic; Activity (Mus musculus [22]): Non-toxic; Activity (Mus musculus [23]): Active
